The values that follow come from US20020173640A1, “ADAM polynucleotides, polypeptides, and antibodies” (Human Genome Sciences, Inc., priority 1999, published 2002).

Experiment [1] has as its system protease inhibitor-resistant viruses. As to conditions: cited from earlier work.
The subject of experiment [2] is lamivudine-resistant isolates. As to conditions: cited from earlier work.
Experiment [3] deals with human metastatic melanoma (M24 cells). The note with it: cited from earlier work.
In the next experiment the test system is M24 cells. The note with it: murine metastasis model; cited from earlier work.
Experiment [4] relates to alpha-2-macroglobulin (α2-M). Put plainly: Cleavage of α2-M by hADAM-19. The note with it: 37° C.; new bands of 105 kDa and 72 kDa; dose-dependent. It counts as biochemical, Bovine. As for the experimental part: The time course of hydrolysis of α2-M by hADAM-19 was examined. Ten μl of purified hADAM-19 (50 μg/ml) were mixed with 23.8 μl α2-M (0.2 unit)ml) in 66.24 μl 1× assay buffer (50 mM HEPES, pH 7.5, 0.2 M NaCl, 10 mM CaCl2, 25 μM ZnCl2 and 0.05% Brij-35) and incubated at 37° C. for 1-5 days. Trypsin was used as a positive control. The molar ratios between α2-M and hADAM-19 or trypsin were from 1:1 to 5:1. The samples were collected and boiled in SDS-PAGE sample buffer containing 5% 2-mercaptoethanol for 5-min, then loaded onto an 8% SDS-polyacrylamide gel. After electrophoresis the proteins were visualized by silver staining method.

For experiment [5], the system named is rat tail tendon type I gelatin. In words: Substrate specificity: gelatin. Format: biochemical. As for the experimental part: (§1) The following assay(s) are useful in determining the presence of protease activity. Gelatin and casein zymography are performed essentially as described (Heusen et al., Anal. Biochem., 102:196-202 (1980); Wilson et al., Journal of Urology, 149:653-658 (1993)). Samples are run on 10% polyacryamide/0.1% SDS gels containing 1% gelain orcasein, soaked in 2.5% triton at room temperature for 1 hour, and in 0.1M glycine, pH 8.3 at 37° C. 5 to 16 hours. After staining in amido black areas of proteolysis apear as clear areas agains the blue-black background. Trypsin (Sigma T8642) is used as a positive control.

The test system of experiment [6] is alpha-2-macroglobulin (α2-M). In words: Complex formation between hADAM-19 and α2-M (Western blot, anti-Flag). Format: binding, Bovine. As to conditions: 37° C. for 16 h; Western blot with anti-Flag Ab. As for the experimental part:
Complex Formation Between hADAM-19 and α2-M Human ADAM-19 transient transfected supernatant was concentrated by about 10-fold in a 0.4 ml Ultrafree MC filter unit (Low Binding Regenerated Cellulose membrane, MW cutoff 10 kDa) from Millipore. 40 μl of the concentrated sample were mixed with TBSZ buffer (50 mM Tris.HCl, 150 mM NaCl, 5 μM ZnCl2) with or without α2-M protein (Roche Molecular Biochemicals, final concentration, 1 unit/ml) in a total 50 μl reaction volume and incubated at 37° C. for 16 h. The samples were boiled in Lamini sample buffer and loaded on a 4-12% percent Tris-Giycine gel. In the case of purified hADAM-19 protein, one to 10 μl of purified protein were incubated with α2-M protein in TBSZ buffer in a total of 50 μl reaction volume and incubated at 37° C. for 16 h. Anti-Flag M2 antibody (Ab), at 1 μg/ml concentration (Sigma), was used as primary Ab. Peroxidase-labelled goat anti-mouse Ab from Amersham Pharmacia Biotech was used as secondary Ab at 1:2000 dilution.

The subject of the next experiment is bovine casein. Put plainly: Substrate specificity: casein. It counts as biochemical. As for the experimental part: as §1
A further experiment relates to alpha-2 macroglobulin. Put plainly: metal-dependant proteolysis of alpha-2 macroglobulin. Format: biochemical. As to conditions: see Example 19.

Turning to `Cc1ccccc1CNC(=O)[C@H]1N(C(=O)[C@@H](O)[C@H](Cc2ccccc2)NC(=O)c2cccc(O)c2C)CSC1(C)C` [AG-1776], in experiment [1], the “in vitro activity against protease inhibitor-resistant viruses” value is listed as “in vitro activity against protease inhibitor-resistant viruses”.

As to `Nc1ccn([C@H]2CO[C@@H](CO)S2)c(=O)n1` [dOTC], in [2], the “activity against lamivudine-resistant isolates” value is reported as “retains activity against a substantial proportion of lamivudine-resistant isolates”.

Consider contortrostatin, for which, in [3], the “inhibition of M24 cell adhesion to laminin” value is listed as “not laminin”; the “inhibition of M24 cell adhesion to type I collagen, vitronectin, and fibronection” value is listed as “inhibit”. Moreover, the “inhibition of lung colonization of M24 cells” value in the experiment on M24 cells was “inhibits lung colonization”.

B1: hADAM-19: Flag-tagged hADAM-19 protein (residues 26-701 of SEQ ID NO: 9) purified from transfected 293T cells (protein, listed as Homo sapiens)
chain: REPGWTRGSEEGSPKLQHELIIPQWKTSESPVREKHPLKAELRVMAEGRELILDLEKNEQLFAPSYTETHYTSSGNPQTTTRKLEDHCFYHGTVRETELSSVTLSTCRGIRGLITVSSNLSYVIEPLPDSKGQHLIYRSEHLKPPPGNCGFEHSKPTTRDWALQFTQQTKKRPRRMKREDLNSMKYVELYLVADYLEFQKNRRDQDATKHKLIEIANYVDKFYRSLNIRIALVGLEVWTHGNMCEVSENPYSTLWSFLSWRRKLLAQKYHDNAQLITGMSFHGTTIGLAPLMAMCSVYQSGGVNMDHSENAIGVAATMAHEMGHNFGMTHDSADCCSASAADGGCIMAAATGHPFPKVFNGCNRRELDRYLQSGGGMCLSNMPDTRMLYGGRRCGNGYLEDGEECDCGEEEECNNPCCNASNCTLRPGAECAHGSCCHQCKLLAPGTLCREQARQCDLPEFCTGKSPHCPTNFYQMDGTPCEGGQAYCYNGMCLTYQEQCQQLWGPGARPAPDLCFEKVNVAGDTFGNCGKDMNGEHRKCNMRDAKCGKIQCQSSEARPLESNAVPIDTTIIMNGRQIQCRGTHVYRGPEEEGDMLDPGLVMTGTKCGYNHICFEGQCRNTSFFETEGCGKKCNGHGVCNNNQNCHCLPGWAPPFCNTPGHGGSIDSGPMPPESVG
modifications: Flag tag
Turning to B1, the “cleavage of α2-M” value in [4] is on record as “cleaved α2-M”. The “dissolution of rat tail tendon type I gelatin” value in [5] is listed as “not dissolved”. In addition, the “complex formation with α2-M” value in experiment [6] is on record as “formed a complex of 170 kDa band with α2-M”. Besides, in the experiment with bovine casein, the “dissolution of bovine casein” value is recorded as “not dissolved”.

B2: Gene NO: 1: human ADAM polypeptide encoded by cDNA clone HDPDH32, homologous to murine metalloproteinase-disintegrin meltrin beta (protein, listed as Homo sapiens)
chain: MPGGAGAARLCLLAFALQPLRPRAAREPGWTRGSEEGSPKLQHELIIPQWKTSESPVREKHPLKAELRVMAEGRELILDLEKNEQLFAPSYTETHYTSSGNPQTTTRKLEDHCFYHGTVRETELSSVTLSTCRGIRGLITVSSNLSYVIEPLPDSKGQHLIYRSEHLKPPPGNCGFEHSKPTTRDWALQFTQQTKKRPRRMKREDLNSMKYVELYLVADYLEFQKNRRDQDATKHKLIEIANYVDKFYRSLNIRIALVGLEVWTHGNMCEVSENPYSTLWSFLSWRRKLLAQKYHDNAQLITGMSFHGTTIGLAPLMAMCSVYQSGGVNMDHSENAIGVAATMAHEMGHNFGMTHDSADCCSASAADGGCIMAAATGHPFPKVFNGCNRRELDRYLQSGGGMCLSNMPDTRMLYGGRRCGNGYLEDGEECDCGEEEECNNPCCNASNCTLRPGAECAHGSCCHQCKLLAPGTLCREQARQCDLPEFCTGKSPHCPTNFYQMDGTPCEGGQAYCYNGMCLTYQEQCQQLWGPGARPAPDLCFEKVNVAGDTFGNCGKDMNGEHRKCNMRDAKCGKIQCQSSEARPLESNAVPIDTTIIMNGRQIQCRGTHVYRGPEEEGDMLDPGLVMTGTKCGYNHICFEGQCRNTSFFETEGCGKKCNGHGVCNNNQNCHCLPGWAPPFCNTPGHGGSIDSGPMPPESVGPVVAGVLVAILVLAVLMLMYYCCRQNNKLGQLKPSALPSKLRQQFSCPFRVSQNSGTGHANPTFKLQTPQGKRKVINTPEILRKPSQPPPRPPPDYLRGGSPPAPLPAHLSRAARNSPGPGSQIERTESSRRPPPSRPIPPAPNCIVSQDFSRPRPPQKALPANPVPGRRSLPRPGGASPLRPPGAGPQQSRPLAALAPKFPEYRSQRAGGMISSKI
Turning to B2, in the experiment with alpha-2 macroglobulin, the “metal-dependant proteolysis of alpha-2 macroglobulin” value is “displayed metal-dependant proteolysis of alpha-2 macroglobulin”.
